This note sets out measurements from PubChem BioAssay (NCI).

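Growth conditions: 96-well plates. Treatment: test compound, 48 hours, 5 concentrations. Analysis: linear interpolation between bracketing concentrations; unreached endpoints set to highest concentration. GI50 is the concentration that inhibits growth by half. TGI: total growth inhibition.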

Some test systems named below: 786-0 renal; EKVX NSCLC; HCT-116 colon; HOP-62 NSCLC; LOX IMVI melanoma; NCI-H23 lung; OVCAR-4 ovarian; SF-268 CNS; SN12C renal; UO-31 renal.
Common to all, as to experiment: DTP human tumour cell line panel, 48 h

One may read the GI50 as the concentration that inhibits growth by half. Broadly, the TGI is the concentration at which net growth stops. On to `CC[C@@H](c1ccc(O)c(O)c1)[C@@H](CC)c1ccc(O)c(O)c1`, for which the GI50 was 20.4 µM with 786-0 renal; 13.4 µM with EKVX NSCLC; 4.23 µM with HCT-116 colon; 17.7 µM in the experiment with HOP-62 NSCLC; 2.85 µM in the experiment on LOX IMVI melanoma; 14.2 µM in the experiment on NCI-H23 lung. The GI50 with OVCAR-4 ovarian is 4.6 µM; in the experiment on SF-268 CNS, 17.9 µM; with SN12C renal it was 19.3 µM; in the experiment with UO-31 renal, 4.12 µM. In addition, the TGI in the experiment on 786-0 renal came out at 38.2 µM; with EKVX NSCLC, 29.4 µM; with HCT-116 colon it was 14.4 µM; in the experiment on HOP-62 NSCLC, 33 µM; in the experiment with LOX IMVI melanoma, 9.91 µM; in the experiment with NCI-H23 lung, 31.8 µM. The TGI in the experiment on OVCAR-4 ovarian is 39.3 µM; in the experiment with SF-268 CNS, 37.5 µM; with SN12C renal it was 41.3 µM; in the experiment with UO-31 renal, 21.4 µM.
Turning to `CN1CCN(C(=O)COc2ccc(C34CC5CC(CC(C5)C3)C4)cc2)CC1`, the GI50 in the experiment on 786-0 renal was 11.3 µM; in the experiment with EKVX NSCLC it was 24.6 µM; in the experiment on HCT-116 colon, 13.9 µM; in the experiment on HOP-62 NSCLC, 14.5 µM; in the experiment with LOX IMVI melanoma, 12.3 µM; in the experiment on NCI-H23 lung, 15.3 µM. Further, the GI50 with OVCAR-4 ovarian is 20.8 µM; in the experiment on SF-268 CNS, 16.4 µM; with SN12C renal, 12.6 µM; with UO-31 renal, 12.4 µM. In addition, the TGI is 23.5 µM in the experiment on 786-0 renal; more than 100 µM in the experiment on EKVX NSCLC; 26.9 µM with HCT-116 colon; 32.5 µM with HOP-62 NSCLC; 25 µM with LOX IMVI melanoma; 36.7 µM with NCI-H23 lung. Moreover, the TGI in the experiment on OVCAR-4 ovarian turned out to be 76.9 µM; with SF-268 CNS, 39.3 µM; with SN12C renal, 26.1 µM; in the experiment with UO-31 renal, 25 µM.
Take `C=C1C(=O)O[C@H]2[C@H]1CC/C(CNC(=O)c1cc3ccccc3[nH]1)=C\CC[C@@]1(C)O[C@@H]21`: the GI50 is 1.69 µM in the experiment with 786-0 renal; 2.11 µM in the experiment on EKVX NSCLC; 1 µM in the experiment with HCT-116 colon; 1.86 µM in the experiment with HOP-62 NSCLC; 0.58 µM with LOX IMVI melanoma; 1.68 µM with NCI-H23 lung. The GI50 with OVCAR-4 ovarian is 1.73 µM; in the experiment with SF-268 CNS, 1.6 µM; in the experiment with SN12C renal it was 1.79 µM; with UO-31 renal, 1.29 µM. Also, the TGI turned out to be 3.43 µM with 786-0 renal; 8.04 µM in the experiment on EKVX NSCLC; 2.21 µM in the experiment on HCT-116 colon; 4.37 µM in the experiment on HOP-62 NSCLC; 1.99 µM in the experiment with LOX IMVI melanoma; 4.26 µM in the experiment on NCI-H23 lung. Also, the TGI in the experiment on OVCAR-4 ovarian was 5.53 µM; with SF-268 CNS, 3.67 µM; in the experiment on SN12C renal, 4.85 µM; in the experiment with UO-31 renal it was 2.9 µM.
On to `COc1cc(-c2nc3sccn3c2-c2ccnc(NCCNS(=O)(=O)c3ccc(F)cc3)n2)ccc1F`, for which the GI50 is 0.503 µM with 786-0 renal; 3.4 µM in the experiment on EKVX NSCLC; 0.362 µM in the experiment on HCT-116 colon; 4.82 µM in the experiment with HOP-62 NSCLC; 1.65 µM with LOX IMVI melanoma; 2.96 µM with NCI-H23 lung. In addition, the GI50 with OVCAR-4 ovarian is 3.4 µM; with SF-268 CNS it was 2.78 µM; in the experiment on SN12C renal, 1.89 µM; in the experiment with UO-31 renal, 1.29 µM. In addition, the TGI in the experiment on 786-0 renal, in the experiment with EKVX NSCLC, in the experiment on HCT-116 colon, in the experiment on HOP-62 NSCLC, in the experiment on LOX IMVI melanoma and in the experiment with NCI-H23 lung was more than 100 µM throughout. Also, the TGI in the experiment on OVCAR-4 ovarian, with SF-268 CNS, in the experiment on SN12C renal and in the experiment on UO-31 renal was more than 100 µM in each case.
For the compound `CCOC(=O)C1=C(C)N(NC(=O)Nc2ccccc2)C2(N)N(NC(=O)Nc3ccccc3)C(C)=C(C(=O)OCC)C12C(=O)OCC` (stereo not given), the TGI in the experiment on 786-0 renal was more than 100 µM; with EKVX NSCLC, more than 100 µM; in the experiment with HCT-116 colon, 80.2 µM; in the experiment with HOP-62 NSCLC, 84.7 µM; with LOX IMVI melanoma, more than 100 µM; in the experiment on NCI-H23 lung, more than 100 µM. For the same compound, the TGI in the experiment with OVCAR-4 ovarian is more than 100 µM; with SF-268 CNS, more than 100 µM; in the experiment on SN12C renal it was 3.01 µM; in the experiment on UO-31 renal, more than 100 µM.
Turning to `COc1ccccc1NC(=O)c1cc2cc(Br)ccc2cc1O`, the GI50 in the experiment on 786-0 renal is 3.52 µM; with EKVX NSCLC, 1.77 µM; in the experiment with HCT-116 colon, 2.8 µM; in the experiment on HOP-62 NSCLC, 2.38 µM; with LOX IMVI melanoma, 2.69 µM; with NCI-H23 lung, 2.19 µM. Besides, the GI50 was 3.11 µM in the experiment with OVCAR-4 ovarian, 3.21 µM in the experiment with SF-268 CNS, 2.73 µM in the experiment with SN12C renal and 1.57 µM in the experiment with UO-31 renal. Also, the TGI in the experiment on 786-0 renal was 11.2 µM; with EKVX NSCLC it was 8.1 µM; in the experiment on HCT-116 colon, 10.3 µM; in the experiment on HOP-62 NSCLC, 6.86 µM; in the experiment with LOX IMVI melanoma, 8.8 µM; with NCI-H23 lung, 8.71 µM. Also, the TGI was 21.4 µM in the experiment on OVCAR-4 ovarian, 16.2 µM with SF-268 CNS, 9.64 µM in the experiment with SN12C renal and 7.85 µM with UO-31 renal.
On to `COC(=O)[C@]12CC[C@@H](C)[C@H](C)[C@@H]1C1=CC[C@@H]3[C@@]4(C)C[C@@H](O)[C@H](O)[C@@](C)(CO)[C@@H]4[C@H](O)C[C@@]3(C)[C@]1(C)CC2`, for which the GI50 is 11.5 µM in the experiment with 786-0 renal; 13.4 µM with EKVX NSCLC; 11.1 µM in the experiment on HCT-116 colon; 20.3 µM in the experiment with HOP-62 NSCLC; 14 µM with LOX IMVI melanoma; 16.8 µM with NCI-H23 lung. Besides, the GI50 in the experiment on OVCAR-4 ovarian was 12.1 µM; with SF-268 CNS, 12.6 µM; in the experiment with SN12C renal it was 14.5 µM; in the experiment with UO-31 renal it was 6.3 µM. Moreover, the TGI in the experiment with 786-0 renal was found to be 31.6 µM; in the experiment on EKVX NSCLC, 31.4 µM; in the experiment with HCT-116 colon it was 26.4 µM; in the experiment on HOP-62 NSCLC it was 42.7 µM; with LOX IMVI melanoma, 28 µM; in the experiment with NCI-H23 lung it was 36.6 µM. The TGI with OVCAR-4 ovarian came to 32.8 µM; in the experiment on SF-268 CNS, 27.5 µM; with SN12C renal, 30.6 µM; in the experiment with UO-31 renal, 29.8 µM.
Turning to `CN(C)c1ccc(/C=N/NC(=S)Nc2ccccc2)cc1`, the TGI in the experiment with 786-0 renal, in the experiment on EKVX NSCLC, with HCT-116 colon, with HOP-62 NSCLC, in the experiment on LOX IMVI melanoma and in the experiment with NCI-H23 lung was more than 100 µM throughout. Moreover, the TGI in the experiment with OVCAR-4 ovarian, in the experiment with SF-268 CNS, with SN12C renal and in the experiment on UO-31 renal was more than 100 µM throughout.
